The structures appear in SMILES notation. pEC50, pKd: −log10 of the molar value. Where only a bound is given, the exact number is not on record here.

This is an account of results in patent publication US20020082419A1, “2,4-pentadienoic acid derivatives having retinoid-like biological activity” (Allergan Sales, Inc., priority 1995, published 2002).

Experiment [1] concerns the target T1, RXRα (Homo sapiens, UniProt P19793).
T1 construct: expressed in transfected cells; host or cells: CV1 cells
T1 sequence (P19793 1-462): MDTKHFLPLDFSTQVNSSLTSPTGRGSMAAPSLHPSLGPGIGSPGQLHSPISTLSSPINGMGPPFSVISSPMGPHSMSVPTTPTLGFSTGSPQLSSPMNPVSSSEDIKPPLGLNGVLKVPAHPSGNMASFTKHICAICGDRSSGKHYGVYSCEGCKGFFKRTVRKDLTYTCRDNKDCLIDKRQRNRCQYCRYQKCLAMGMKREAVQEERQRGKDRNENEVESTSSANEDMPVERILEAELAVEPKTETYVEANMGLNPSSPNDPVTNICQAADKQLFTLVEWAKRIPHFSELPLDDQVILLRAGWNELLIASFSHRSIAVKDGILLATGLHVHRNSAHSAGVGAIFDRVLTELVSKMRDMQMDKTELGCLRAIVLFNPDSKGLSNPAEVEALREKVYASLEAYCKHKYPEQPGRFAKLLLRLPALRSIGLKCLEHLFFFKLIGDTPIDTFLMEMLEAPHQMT
Nature of the experiment: Holoreceptor transactivation assay, RXRα. The experiment is classed as cell-based. The conditions noted are these: for pEC50: CV1 cells, luciferase reporter, 36 hours incubation; for Transactivation Assay Afficacy (% of RA activity) RXRα: relative to all trans retinoic acid. The text has this:
(§1) A holoreceptor transactivation assay and a ligand binding assay which measure the agonist like activity of the compounds of the invention, or their ability to bind to the several retinoid receptor sub-types, respectively, are described in published PCT Application No. WO WO93/11755 (particularly on pages 30-33 and 37-41) published on Jun. 24, 1993, the specification of which is also incorporated herein by reference. A description of the holoreceptor transactivation assay is also provided below.
(§2) CV1 cells (5,000 cells/well) were transfected with an RAR reporter plasmid ▴MTV-TREp-LUC (50 ng) along with one of the RAR expression vectors (10 ng) in an automated 96-well format by the calcium phosphate procedure of Heyman et al. Cell 68, 397-406. (8). For RXR transactivation assays, an RXR-responsive reporter plasmid CRBP II-TK-LUC (50 ng) along with one of the RXR expression vectors (10 ng) was used substantially as described by Heyman et al. above, and Allegretto et al. J. Biol. Chem. 268, 26625-26633. (8, 9). RXR-reporter contained DRI elements from human CRBP II promoter (see Mangelsdorf et al. The Retinoids: Biology, Chemistry and Medicine, pp 319-349, Raven Press Ltd., New York and Heyman et al., cited above) (1, 8). A β-galactosidase (50 ng) expression vector was used as an internal control in the transfections to normalize for variations in transfection efficiency. The cells were transfected in triplicate for 6 hours, followed by incubation with retinoids for 36 hours, and the extracts were assayed for luciferase and β-galactosidase activities. The detailed experimental procedure for holoreceptor transactivations has been described in Heyman et al. above, and Allegretto et al. cited above. The results obtained in this assay in connection with examplary compounds in accordance with the present invention are expressed in EC50 numbers, as they are also in the chimeric receptor transactivation assay. The Heyman et al. Cell 68, 397-406, Allegretto et al. J. Biol. Chem. 268, 26625-26633, and Mangelsdorf et al. The Retinoids: Biology, Chemistry and Medicine, pp 319-349, Raven Press Ltd., New York, are expressly incorporated herein by reference. The results of ligand binding assay are expressed in KD50 numbers.

Another experiment addresses T2, RARΓ (Homo sapiens, UniProt P13631).
T2 construct: expressed in transfected cells; host or cells: CV1 cells
T2 sequence (P13631 1-454): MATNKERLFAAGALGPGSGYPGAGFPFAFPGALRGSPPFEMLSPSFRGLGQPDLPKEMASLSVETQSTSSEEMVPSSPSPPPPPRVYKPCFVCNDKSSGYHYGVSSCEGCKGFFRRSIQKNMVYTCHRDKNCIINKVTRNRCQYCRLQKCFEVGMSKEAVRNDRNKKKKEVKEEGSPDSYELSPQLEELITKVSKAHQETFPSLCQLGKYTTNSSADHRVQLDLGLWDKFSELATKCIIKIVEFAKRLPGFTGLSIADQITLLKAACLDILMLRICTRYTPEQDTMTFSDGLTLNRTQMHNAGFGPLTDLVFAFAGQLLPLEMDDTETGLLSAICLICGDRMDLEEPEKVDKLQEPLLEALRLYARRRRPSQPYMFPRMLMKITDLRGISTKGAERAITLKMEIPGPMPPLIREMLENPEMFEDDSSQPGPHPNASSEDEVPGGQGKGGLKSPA
Nature of the experiment: Holoreceptor transactivation assay, RARΓ. The experiment is classed as cell-based. The conditions noted are these: for pEC50: CV1 cells, luciferase reporter, 36 hours incubation; for Transactivation Assay Afficacy (% of RA activity) RARΓ: relative to all trans retinoic acid. Here is the method:
(§3) A description of the holoreceptor transactivation assay is also provided below.
(§4) (8). […] (8, 9). […] A β-galactosidase (50 ng) expression vector was used as an internal control in the transfections to normalize for variations in transfection efficiency. The cells were transfected in triplicate for 6 hours, followed by incubation with retinoids for 36 hours, and the extracts were assayed for luciferase and β-galactosidase activities. The detailed experimental procedure for holoreceptor transactivations has been described in Heyman et al. above, and Allegretto et al. cited above. […] The results of ligand binding assay are expressed in KD50 numbers.

The next experiment deals with T3, RARα (Homo sapiens, UniProt P10276).
T3 construct: expressed in transfected cells; host or cells: CV1 cells
T3 sequence (P10276 1-462): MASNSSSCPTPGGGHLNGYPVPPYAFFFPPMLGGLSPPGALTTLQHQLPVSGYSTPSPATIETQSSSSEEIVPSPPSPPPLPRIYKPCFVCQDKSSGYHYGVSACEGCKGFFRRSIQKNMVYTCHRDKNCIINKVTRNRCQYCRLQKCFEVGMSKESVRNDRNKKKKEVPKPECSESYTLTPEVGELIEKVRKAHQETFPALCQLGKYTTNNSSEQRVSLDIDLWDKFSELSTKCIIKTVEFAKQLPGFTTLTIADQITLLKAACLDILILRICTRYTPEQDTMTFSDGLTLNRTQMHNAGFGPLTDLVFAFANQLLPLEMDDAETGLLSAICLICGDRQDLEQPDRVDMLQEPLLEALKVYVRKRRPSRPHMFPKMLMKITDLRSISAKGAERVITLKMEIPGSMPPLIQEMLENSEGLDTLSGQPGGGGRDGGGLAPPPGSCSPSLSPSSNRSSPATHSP
Put plainly: Holoreceptor transactivation assay, RARα. It is filed as cell-based. Particulars: for pEC50: CV1 cells, luciferase reporter, 36 hours incubation; for Transactivation Assay Afficacy (% of RA activity) RARα: relative to all trans retinoic acid. Here is the method:
as §3, §4

In experiment [2] the target is T1, RXRα. Nature of the experiment: Ligand binding assay, RXRα. The conditions noted are these: read-out: Ligand Binding Assay KD50 RXRα.
Description: as §1
as §2, with “The Heyman et al. Cell 68, 397-406, Allegretto et al. J. Biol. Chem. 268, 26625-26633, and Mangelsdorf et al. The Retinoids: Biology, Chemistry and Medicine, pp 319-349, Raven Press Ltd., New York, are expressly incorporated herein by reference. The results of ligand binding assay are expressed in KD50 numbers.” left out

Turning to `CC(C=CC1CC1(C)c1ccc2c(c1)C(C)(C)CCO2)=CC(=O)O` (stereo not drawn) [Compound 21, 3,7-Dimethyl,6(RS),7(SR) methano-7-(4,4-dimethyl-chroman-6-yl),2(E),4(E)-heptadienoic Acid], on RXRα [1], the negative logarithm of the EC50 (pEC50) is 7.57 and the “Transactivation Assay Afficacy (% of RA activity) RXRα” value was 83.0 % of RA activity. Besides, at RARΓ, the pEC50 was less than 6.00 and the “Transactivation Assay Afficacy (% of RA activity) RARΓ” value is reported as 14.0 % of RA activity. At RARα, the pEC50 was less than 6.00 and the “Transactivation Assay Afficacy (% of RA activity) RARα” value is recorded as 4.0 % of RA activity. Moreover, on RXRα [2], the pKd is 8.30.

For the compound `CC(C=CC1CC1(C)c1cc2c(cc1C)C(C)(C)CCC2(C)C)=CC(=O)O` (stereo not drawn) [Compound 13, 3,7-Dimethyl,6(RS),7(SR) methano-7-(3,5,5,8,8-pentamethyl-5,6,7,8-tetrahydronaphth-2-yl),2(E),4(E)-heptadienoic Acid], on RXRα [1], the pEC50 is 6.89 and the “Transactivation Assay Afficacy (% of RA activity) RXRα” value is recorded as 55.0 % of RA activity. Also, on RARΓ, the pEC50 is less than 6.00 and the “Transactivation Assay Afficacy (% of RA activity) RARΓ” value is reported as 8.0 % of RA activity. Further, on RARα, the pEC50 is less than 6.00 and the “Transactivation Assay Afficacy (% of RA activity) RARα” value is recorded as 0.0 % of RA activity. In addition, on RXRα [2], the pKd is 7.15.

Take `CC(/C=C/c1ccccc1-c1ccc2c(c1)C(C)(C)CCC2(C)C)=C\C(=O)O` [Compound 9, 3-Methyl-5-[2-(5,5,8,8,-tetramethyl-5,6,7,8-tetrahydronaphth-2-yl)phenyl]pent-2(E),4(E)-dienoic Acid]: on RXRα [1], the pEC50 is 6.54 and the “Transactivation Assay Afficacy (% of RA activity) RXRα” value is 59.0 % of RA activity. Also, on RARΓ, the negative logarithm of the EC50 (pEC50) is less than 6.00 and the “Transactivation Assay Afficacy (% of RA activity) RARΓ” value is on record as 8.0 % of RA activity. In addition, on RARα, the negative logarithm of the EC50 (pEC50) was less than 6.00 and the “Transactivation Assay Afficacy (% of RA activity) RARα” value is on record as 2.0 % of RA activity.

For the compound `CC(C=CC1CC1(C)c1ccc2c(c1)C(C)(C)CCS2)=CC(=O)O` (stereo not drawn) [Compound 17, 3,7-Dimethyl,6(RS),7(SR) methano-7-(4,4-dimethylthiochroman-6-yl) 2(E),4(E)-heptadienoic Acid], at RXRα [1], the negative logarithm of the EC50 (pEC50) is 7.52 and the “Transactivation Assay Afficacy (% of RA activity) RXRα” value is reported as 111 % of RA activity. At RARΓ, the pEC50 was 6.57 and the “Transactivation Assay Afficacy (% of RA activity) RARΓ” value was 41 % of RA activity. Moreover, at RARα, the negative-log EC50 (pEC50) is 5.92 and the “Transactivation Assay Afficacy (% of RA activity) RARα” value is 30 % of RA activity. The pKd on RXRα [2] is 8.52.
